Measurements reported in PubChem BioAssay AID248 (DTP/NCI, 2004).
Several values for one entry are separate records, joined by “and”; a condition that tells them apart may be missing. Identical values can stand only once. Inconclusive results and toxic doses are left out.

Tested on: L1210 leukemia ip in BDF1 mice, survival T/C
Assay: NCI In Vivo Anticancer Drug Screen. Data for tumor model L1210 Leukemia (intraperitoneal) in B6D2F1 (BDF1) mice
Details: endpoint: mean survival time, higher = longer survival
In short: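 Read-out is survival time, reported as the treated-group measurement over the vehicle-control measurement.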

[1] = dose: 100.0 mg/kg/injection, schedule: Q01DX009 (ip), vehicle: saline with Tween-80
[2] = dose: 200.0 mg/kg/injection, schedule: Q01DX009 (ip), vehicle: saline with Tween-80
[3] = dose: 400.0 mg/kg/injection, schedule: Q01DX009 (ip), vehicle: saline with Tween-80
[4] = dose: 100.0 mg/kg/injection, schedule: Q04DX003 (ip), vehicle: Klucel (hydroxypropylcellulose) (HPC)
[5] = dose: 200.0 mg/kg/injection, schedule: Q04DX003 (ip), vehicle: Klucel (hydroxypropylcellulose) (HPC)
[6] = dose: 400.0 mg/kg/injection, schedule: Q04DX003 (ip), vehicle: Klucel (hydroxypropylcellulose) (HPC)
[7] = dose: 100.0 mg/kg/injection, schedule: Q04DX002 (ip), vehicle: Klucel (hydroxypropylcellulose) (HPC)
[8] = dose: 200.0 mg/kg/injection, schedule: Q04DX002 (ip), vehicle: Klucel (hydroxypropylcellulose) (HPC)
[9] = dose: 400.0 mg/kg/injection, schedule: Q04DX002 (ip), vehicle: Klucel (hydroxypropylcellulose) (HPC)
[10] = dose: 75.0 mg/kg/injection, schedule: Q01DX009 (ip), vehicle: saline

NC(=O)c1ccc(NCc2cnc3nc(N)nc(N)c3n2)cc1
T/C (dose: 20.0 mg/kg/injection, schedule: Q01DX009 (ip), vehicle: Klucel (hydroxypropylcellulose) (HPC)): 106 % of control
T/C (dose: 40.0 mg/kg/injection, schedule: Q01DX009 (ip), vehicle: Klucel (hydroxypropylcellulose) (HPC)): 101 % of control
T/C (dose: 80.0 mg/kg/injection, schedule: Q01DX009 (ip), vehicle: Klucel (hydroxypropylcellulose) (HPC)): 103 % of control

Cc1cc(=O)oc2cc(OC(=O)Nc3ccc(Cl)cc3C(F)(F)F)ccc12
T/C [1]: 97 % of control
T/C [2]: 97 % of control
T/C [3]: 92 % of control

O=C1C=C(N2C3C4CCC(C4)C32)C(=O)C=C1c1ccccc1 (stereo not given)
T/C (dose: 50.0 mg/kg/injection, schedule: Q01DX001 (ip), vehicle: Klucel (hydroxypropylcellulose) (HPC)): 96 % of control
T/C (dose: 100.0 mg/kg/injection, schedule: Q01DX001 (ip), vehicle: Klucel (hydroxypropylcellulose) (HPC)): 97 % of control
T/C (dose: 200.0 mg/kg/injection, schedule: Q01DX001 (ip), vehicle: Klucel (hydroxypropylcellulose) (HPC)): 94 % of control

O=C1CC(N2C(=O)C3CCCCC3C2=O)C(=O)N1 (stereo not given)
T/C (dose: 100.0 mg/kg/injection, schedule: Q04DX003 (ip), vehicle: saline): 97 % of control
T/C (dose: 200.0 mg/kg/injection, schedule: Q04DX003 (ip), vehicle: saline): 101 % of control
T/C (dose: 400.0 mg/kg/injection, schedule: Q04DX003 (ip), vehicle: saline): 97 % of control

O=S(=O)(/C=C\c1ccccc1)N(c1ccccc1)c1ccccc1
T/C [4]: 102 % of control
T/C [5]: 110 % of control
T/C [6]: 96 % of control

c1ccc(C(C2CCCCC2)(C2CCCCC2)C(c2ccccc2)(C2CCCCC2)C2CCCCC2)cc1
T/C (dose: 25.0 mg/kg/injection, schedule: Q04DX003 (ip), vehicle: Klucel (hydroxypropylcellulose) (HPC)): 105 % of control
T/C (dose: 50.0 mg/kg/injection, schedule: Q04DX003 (ip), vehicle: Klucel (hydroxypropylcellulose) (HPC)): 111 % of control
T/C [4]: 92 % of control and 93 % of control
T/C [5]: 93 % of control
T/C [6]: 87 % of control

CC(C)OC(=S)SCC(=O)c1ccc(C(F)(F)F)cc1
T/C [7]: 96 % of control
T/C [8]: 92 % of control
T/C [9]: 92 % of control

OC(Cc1ccccc1)c1ccccc1 (stereo not given)
T/C (dose: 50.0 mg/kg/injection, schedule: Q01DX001 (ip), vehicle: saline): 100 % of control
T/C (dose: 100.0 mg/kg/injection, schedule: Q01DX001 (ip), vehicle: saline): 100 % of control
T/C [1]: 89 % of control
T/C (dose: 200.0 mg/kg/injection, schedule: Q01DX001 (ip), vehicle: saline): 93 % of control
T/C [2]: 98 % of control
T/C (dose: 400.0 mg/kg/injection, schedule: Q01DX001 (ip), vehicle: saline): 93 % of control
T/C [3]: 95 % of control

Cc1cc(C)nc(NS(=O)(=O)c2ccc(NC(=O)Nc3ccc(F)cc3F)cc2)n1
T/C (dose: 50.0 mg/kg/injection, schedule: Q01DX009 (ip), vehicle: saline with Tween-80): 96 % of control
T/C [1]: 93 % of control
T/C [2]: 101 % of control

CS(=O)(=O)OCCN(CCOS(C)(=O)=O)c1ccc(C=Nc2cccc(Cl)c2)cc1
T/C (dose: 1.25 mg/kg/injection, schedule: Q04DX003 (ip), vehicle: Klucel (hydroxypropylcellulose) (HPC)): 107 % of control
T/C (dose: 5.0 mg/kg/injection, schedule: Q04DX003 (ip), vehicle: Klucel (hydroxypropylcellulose) (HPC)): 107 % of control

O=C(OCCCC(C(=O)c1ccccc1)=P(c1ccccc1)(c1ccccc1)c1ccccc1)c1ccccc1
T/C (dose: 100.0 mg/kg/injection, schedule: Q01DX001 (ip), vehicle: saline with Tween-80): 104 % of control
T/C (dose: 200.0 mg/kg/injection, schedule: Q01DX001 (ip), vehicle: saline with Tween-80): 93 % of control
T/C (dose: 400.0 mg/kg/injection, schedule: Q01DX001 (ip), vehicle: saline with Tween-80): 93 % of control

Cc1ccccc1S(=O)(=O)NC1c2ccccc2Oc2ccccc21
T/C (dose: 75.0 mg/kg/injection, schedule: Q01DX001 (ip), vehicle: saline): 96 % of control
T/C [10]: 86 % of control
T/C (dose: 150.0 mg/kg/injection, schedule: Q01DX001 (ip), vehicle: saline): 86 % of control
T/C (dose: 300.0 mg/kg/injection, schedule: Q01DX001 (ip), vehicle: saline): 86 % of control

Nc1nc(-c2cc(Br)ccc2N=NN2CCOCC2)nc2ccc(Br)cc12
T/C [7]: 105 % of control
T/C [8]: 96 % of control
T/C [9]: 89 % of control

c1ccc(P(CCP(c2ccccc2)c2ccccc2)CCP(c2ccccc2)c2ccccc2)cc1
T/C [4]: 91 % of control
T/C [5]: 96 % of control
T/C [6]: 96 % of control

CC(=O)Cc1cc(=O)[nH]c(=O)[nH]1
T/C [1]: 95 % of control
T/C [2]: 89 % of control

COc1cc(NC(=O)N(CCCl)N=O)cc(OC)c1OC
T/C (dose: 0.12 mg/kg/injection, schedule: Q01DX009 (ip), vehicle: saline): 105 % of control
T/C (dose: 0.25 mg/kg/injection, schedule: Q01DX009 (ip), vehicle: saline): 118 % of control
T/C (dose: 0.5 mg/kg/injection, schedule: Q01DX009 (ip), vehicle: saline): 112 % of control
T/C (dose: 1.0 mg/kg/injection, schedule: Q01DX009 (ip), vehicle: saline): 115 % of control
T/C (dose: 1.5 mg/kg/injection, schedule: Q01DX001 (ip), vehicle: carboxymethylcellulose (CMC)): 111 % of control
T/C (dose: 2.5 mg/kg/injection, schedule: Q01DX009 (ip), vehicle: saline): 161 % of control
T/C (dose: 3.0 mg/kg/injection, schedule: Q01DX001 (ip), vehicle: carboxymethylcellulose (CMC)): 108 % of control
T/C (dose: 5.0 mg/kg/injection, schedule: Q01DX009 (ip), vehicle: saline): 177 % of control
T/C (dose: 6.0 mg/kg/injection, schedule: Q01DX001 (ip), vehicle: carboxymethylcellulose (CMC)): 118 % of control
T/C (dose: 10.0 mg/kg/injection, schedule: Q01DX009 (ip), vehicle: saline): 164 % of control
T/C (dose: 11.0 mg/kg/injection, schedule: Q01DX009 (ip), vehicle: saline with Tween-80): 157 % of control and 216 % of control
T/C (dose: 12.0 mg/kg/injection, schedule: Q01DX001 (ip), vehicle: carboxymethylcellulose (CMC)): 151 % of control
T/C (dose: 15.0 mg/kg/injection, schedule: Q01DX009 (ip), vehicle: saline): 164 % of control
T/C (dose: 16.6 mg/kg/injection, schedule: Q01DX009 (ip), vehicle: saline with Tween-80): 223 % of control
T/C (dose: 22.0 mg/kg/injection, schedule: Q01DX009 (ip), vehicle: saline): 216 % of control
T/C (dose: 25.0 mg/kg/injection, schedule: Q01DX001 (ip), vehicle: carboxymethylcellulose (CMC)): 252 % of control
T/C (dose: 25.0 mg/kg/injection, schedule: Q01DX001 (ip), vehicle: saline): 155 % of control
T/C (dose: 25.0 mg/kg/injection, schedule: Q01DX009 (ip), vehicle: saline with Tween-80): 208 % of control
T/C (dose: 33.0 mg/kg/injection, schedule: Q01DX009 (ip), vehicle: saline): 178 % of control
T/C (dose: 37.5 mg/kg/injection, schedule: Q01DX001 (ip), vehicle: saline): 153 % of control
T/C (dose: 37.5 mg/kg/injection, schedule: Q01DX009 (ip), vehicle: saline with Tween-80): 110 % of control
T/C (dose: 50.0 mg/kg/injection, schedule: Q01DX001 (ip), vehicle: carboxymethylcellulose (CMC)): 106 % of control
T/C (dose: 50.0 mg/kg/injection, schedule: Q01DX009 (ip), vehicle: saline): 260 % of control
T/C (dose: 75.0 mg/kg/injection, schedule: Q01DX001 (ip), vehicle: carboxymethylcellulose (CMC)): 236 % of control
T/C [10]: 173 % of control
